{"source": "patent US7482415B2", "about": "“Process for producing fluoroionomer, method for purification and concentration of the ionomer, and method of film formation” (Daikin Industries, Ltd., priority 2000, dated 2009)", "assay_type_in_all_cases": "physicochemical", "key": {"[1]": {"assay": "Dissolution test (Solvent D): dissolving power of acids for S monomer, visually evaluated", "design": "key: A: Completely dissolved; B: Partially dissolved or swelled; C: Not dissolved", "details": "small amount of S monomer", "protocol": "(§1) Each solvent shown in the following table (50 cc) was placed in an individual test tube, and a small amount of S monomer was added to test the dissolving power.\nThe dissolving power was visually evaluated on the following scale of three. […] A: Completely dissolved; B: Partially dissolved or swelled; C: Not dissolved"}, "[2]": {"assay": "Solubility test of S monomer in solvents"}, "[3]": {"assay": "Dissolution test (Solvent A): dissolving power of solvents for S monomer, visually evaluated", "design": "key: A: Completely dissolved; B: Partially dissolved or swelled; C: Not dissolved", "details": "small amount of S monomer", "protocol": "as §1\nThe dissolving power was visually evaluated on the following scale of three. […] A: Completely dissolved; B: Partially dissolved or swelled; C: Not dissolved."}}, "data": [{"smiles": "O=S(=O)([O-])C(F)(F)C(F)(F)OC(F)=C(F)F.[Na+]", "note": "[S monomer, CF2═CFOCF2CF2SO3Na]", "values": [{"measurement": "Dissolving power", "setting": "[1]; acid Acetic acid (50 cc)", "value": "A"}, {"measurement": "Dissolving power", "setting": "[1]; acid CF2═CFCF2COOH (50 cc)", "value": "A"}, {"measurement": "Dissolving power", "setting": "[1]; acid Hexafluoroisopropanol (50 cc)", "value": "A"}, {"measurement": "Dissolving power", "setting": "[1]; acid Hydrofluoric acid (50 cc)", "value": "A"}, {"measurement": "Dissolving power", "setting": "[1]; acid Trifluoroacetic acid (50 cc)", "value": "A"}, {"measurement": "Solubility", "setting": "[2]; in Dimethoxyethane", "value": 2.7, "unit": "mol/L"}, {"measurement": "Solubility", "setting": "[2]; in Hexafluoroisopropanol", "value": 0.03, "unit": "mol/L"}, {"measurement": "Solubility", "setting": "[2]; in Trifluoroacetic acid", "value": 0.7, "unit": "mol/L"}, {"measurement": "Solubility", "setting": "[2]; in sec-Butanol", "value": 0.77, "unit": "mol/L"}, {"measurement": "Solubility", "setting": "[2]; in t-Butanol", "value": 0.53, "unit": "mol/L"}, {"measurement": "Dissolving power", "setting": "[3]; solvent Acetic acid (50 cc)", "value": "A"}, {"measurement": "Dissolving power", "setting": "[3]; solvent Acetone (50 cc)", "value": "A"}, {"measurement": "Dissolving power", "setting": "[3]; solvent Acetonitrile (50 cc)", "value": "A"}, {"measurement": "Dissolving power", "setting": "[3]; solvent Benzene (50 cc)", "value": "C"}, {"measurement": "Dissolving power", "setting": "[3]; solvent Carbon disulfide (50 cc)", "value": "C"}, {"measurement": "Dissolving power", "setting": "[3]; solvent Chloroform (50 cc)", "value": "C"}, {"measurement": "Dissolving power", "setting": "[3]; solvent Diethyl ether (50 cc)", "value": "C"}, {"measurement": "Dissolving power", "setting": "[3]; solvent Dimethylformamide (50 cc)", "value": "A"}, {"measurement": "Dissolving power", "setting": "[3]; solvent Diphenyl ether (50 cc)", "value": "C"}, {"measurement": "Dissolving power", "setting": "[3]; solvent Ethanol (50 cc)", "value": "A"}, {"measurement": "Dissolving power", "setting": "[3]; solvent Ethyl acetate (50 cc)", "value": "A"}, {"measurement": "Dissolving power", "setting": "[3]; solvent Hexane (50 cc)", "value": "C"}, {"measurement": "Dissolving power", "setting": "[3]; solvent Isopropanol (50 cc)", "value": "A"}, {"measurement": "Dissolving power", "setting": "[3]; solvent Methanol (50 cc)", "value": "A"}, {"measurement": "Dissolving power", "setting": "[3]; solvent Pyridine (50 cc)", "value": "A"}, {"measurement": "Dissolving power", "setting": "[3]; solvent Tetrahydrofuran (50 cc)", "value": "A"}, {"measurement": "Dissolving power", "setting": "[3]; solvent Trifluoroacetic acid (50 cc)", "value": "A"}]}]}
